In US6579868B1, “Purine derivatives and adenosine A2 receptor antagonists serving as preventives/remedies for diabetes” (Eisai Co., Ltd., priority 1998, dated 2003):
Structures can show the parent of a compound that is named as a salt.

| Compound | melting point [°C] |
| --- | --- |
| Cl.Cn1c(-c2ccco2)nc2c(N)nc(C#CC3(O)CCCC3)nc21 | 168 to 172 |
| CCCn1c(-c2cc(F)ccc2F)nc2c(N)nc(C#CC(O)(CC)CC)nc21.Cl | 164 to 165 |
| Cn1c(-c2cc(F)cc(F)c2F)nc2c(N)nc(C#CC3(O)CCCC3)nc21 [Example 125, 1-{2-[6-Amino-9-methyl-8-(2,3,5-trifluorophenyl)-9H-2-purinyl]-1-ethynyl}-1-cyclopentanol] | 214 to 217 |
| Cl.Cn1c(-c2cc(F)cc(F)c2)nc2c(N)nc(C#CC3(O)CCCC3)nc21 | 255 to 258 |
| CC(O)C#Cc1nc(N)c2nc(-c3ccco3)n(C)c2n1 (stereo not shown) [Example 23, 4-[6-Amino-8-(2-furyl)-9-methyl-9H-2-purinyl]-3-butyn-2-ol] | 155 to 158 |
| Cl.Cn1c(-c2ccco2)nc2c(N)nc(C#CCCC3CCCCC3)nc21 | 165 to 169 |
| CCCn1c(-c2cc(F)cc(F)c2)nc2c(N)nc(C#CC(O)(CC)CC)nc21.Cl | 183 to 184 |
| CCC(O)(C#Cc1nc(N)c2nc(-c3cc(F)cc(F)c3)n(C3CC3)c2n1)CC.Cl | 225 |
| Cl.Nc1nc(C#CC2(O)CCCC2)nc2c1nc(-c1cccc(F)c1)n2C1CC1 | 220 to 223 |
| Cl.Nc1nc(C#CC2(O)CCC2)nc2c1nc(-c1cc(F)ccc1F)n2C1CC1 | 161 to 164 |
| CCn1c(-c2cc(F)cc(F)c2)nc2c(N)nc(C#CC3(O)CCCC3)nc21.Cl | 217 to 218 |
| Cn1c(-c2cccc(F)c2)nc2c(N)nc(C#CC3(O)C=CCC3)nc21 (stereo not shown) [Example 122, 1-{2-[6-Amino-8-(3-fluorophenyl)-9-methyl-9H-2-purinyl]-1-ethynyl}-2-cyclopenten-1-ol] | 191 to 193 |
| Cl.Cn1c(-c2ccco2)nc2c(N)nc(C#CC3CCCCC3)nc21 | 155 to 160 |
| CCC(O)(C#Cc1nc(N)c2nc(-c3cc(F)ccc3F)n(C3CC3)c2n1)CC.Cl | 215 to 216 |
| Cl.Nc1nc(C#CC2(O)CCC2)nc2c1nc(-c1cccc(F)c1)n2C1CC1 | 167 to 170 |
| CCn1c(-c2cc(F)ccc2F)nc2c(N)nc(C#CC3(O)CCCC3)nc21.Cl | 191 to 194 |
| Cl.Nc1nc(C#CC2(O)CCC2)nc2c1nc(-c1cc(F)cc(F)c1)n2C1CC1 | 228 |
| COC1CCCCC1(O)C#Cc1nc(N)c2nc(-c3cccc(F)c3)n(C)c2n1 (stereo not shown) [Example 121, 1-{2-[6-Amino-8-(3-fluorophenyl)-9-methyl-9H-2-purinyl]-1-ethynyl}-2-methoxy-1-cyclohexanol] | 195 to 197 |
| CCCn1c(-c2cccc(F)c2F)nc2c(N)nc(C#CC3(O)CCC3)nc21.Cl | 124 to 127 |
| CCn1c(-c2cccc(F)c2)nc2c(N)nc(/C=C/C3(O)CCC3)nc21.Cl | 178 to 180 |
| CCn1c(-c2cccc(F)c2)nc2c(N)nc(C#CC(O)(CC)CC)nc21.Cl | 150 to 153 |

| Compound | melting point [°C] |
| --- | --- |
| CCCCC#Cc1nc(N)c2nc(-c3ccco3)n(C)c2n1.Cl | 178 to 181 |
| Cl.Cn1c(-c2cccc(F)c2)nc2c(N)nc(/C=C/C3(O)CCCCC3)nc21 | 222 to 225 |
| CCCn1c(-c2cccc(F)c2F)nc2c(N)nc(C#CC3(O)CCCC3)nc21.Cl | 184 to 188 |
| CCCn1c(-c2cc(F)cc(F)c2)nc2c(N)nc(C#CC3(O)CCCC3)nc21.Cl | 210 to 211 |
| CCn1c(-c2cc(F)ccc2F)nc2c(N)nc(C#CC3(O)CCC3)nc21.Cl | 141 to 143 |
| CCn1c(-c2cc(F)cc(F)c2)nc2c(N)nc(C#CC3(O)CCC3)nc21.Cl | 234 to 235 |
| CCCn1c(-c2cc(F)ccc2F)nc2c(N)nc(C#CC3(O)CCC3)nc21.Cl | 225 to 226 |
| Cl.Cn1c(-c2cccc(F)c2)nc2c(N)nc(C#CC3(O)CCC(c4ccccc4)CC3)nc21 (stereo not shown) | 247 to 249 |
| Cn1c(-c2cc(F)cc(F)c2F)nc2c(N)nc(C#CC3(O)CCC3)nc21 [Example 126, 1-{2-[6-Amino-9-methyl-8-(2,3,5-trifluorophenyl)-9H-2-purinyl]-1-ethynyl}-1-cyclobutanol] | 231 to 234 |
| Cl.Nc1nc(C#CC2(O)CCCC2)nc2c1nc(-c1cc(F)cc(F)c1)n2C1CC1 | 265 to 266 |
| CCn1c(-c2cc(F)cc(F)c2)nc2c(N)nc(C#CC(O)(CC)CC)nc21.Cl | 204 to 205 |
| COC1CCCCC1(O)C#Cc1nc(N)c2nc(-c3cccc(F)c3)n(C)c2n1 (stereo not shown) [Example 120, 1-{2-[6-Amino-8-(3-fluorophenyl)-9-methyl-9H-2-purinyl}-1-ethynyl}-2-methoxy-1-cyclohexanol] | 281 to 283 |
| CCn1c(-c2cccc(F)c2F)nc2c(N)nc(C#CC3(O)CCCC3)nc21.Cl | 138 to 140 |
| CCC(O)(C#Cc1nc(N)c2nc(-c3cccc(F)c3)n(C3CC3)c2n1)CC.Cl | 145 to 148 |
| Cl.Cn1c(-c2ccco2)nc2c(N)nc(C#CCCO)nc21 | 161 to 164 |
| Cl.Nc1nc(C#CC2(O)CCCC2)nc2c1nc(-c1cc(F)ccc1F)n2C1CC1 | 230 to 232 |
| CN(C)c1ccc(-n2c(-c3cccc(F)c3)nc3c(N)nc(C#CC4(O)CCCCC4)nc32)cc1 (as salt: hydrochloride) [Example 3, 1-{2-[6-Amino-9-[4-(dimetylamino)phenyl]-8-(3-fluorophenyl)-9H-2-purinyl]-1-ethynyl}-1-cyclohexanol Dihydrochloride] | 255 to 260 |
| Cl.Nc1nc(C#CC2(O)CCCCC2)nc2c1nc(-c1cccc(F)c1)n2C1CCCC1 | 196 to 200 |
| CCCn1c(-c2cccc(F)c2)nc2c(N)nc(C#CC(O)(CC)CC)nc21.Cl | 144 to 147 |
| CCCn1c(-c2cc(F)ccc2F)nc2c(N)nc(C#CC3(O)CCCC3)nc21.Cl | 232 to 234 |

Other lines, results leading:

| melting point [°C] | Compound |
| --- | --- |
| 177 to 178 | Cl.Cn1c(-c2cc(F)ccc2F)nc2c(N)nc(C#CC(C)(C)O)nc21 |
| 225 to 229 | Cn1c(-c2cccc(F)c2F)nc2c(N)nc(C#CC3(O)CCC3)nc21 [Example 127, 1-{2-[6-Amino-8-(2,3-difluorophenyl)-9-methyl-9H-2-purinyl]-1-ethynyl}-1-cyclobutanol] |
| 215 to 218 | CCn1c(-c2cc(F)ccc2F)nc2c(N)nc(C#CC(C)(C)O)nc21.Cl |
| 222 to 224 | CCn1c(-c2cccc(F)c2F)nc2c(N)nc(C#CC(O)(CC)CC)nc21.Cl |
| 230 to 233 | CCCn1c(-c2cccc(F)c2F)nc2c(N)nc(C#CC(C)(C)O)nc21.Cl |
| 163 to 166 | CCn1c(-c2cc(F)ccc2F)nc2c(N)nc(C#CC(O)(CC)CC)nc21.Cl |
| 148 to 150 | CCCn1c(-c2cc(F)cc(F)c2)nc2c(N)nc(C#CC(C)(C)O)nc21.Cl |
| 193 to 196 | CCn1c(-c2cccc(F)c2)nc2c(N)nc(C#CC(C)(C)O)nc21.Cl |
| 229 to 230 | CCC(O)(C#Cc1nc(N)c2nc(-c3ccc(C)o3)n(C)c2n1)CC.Cl |
| 194 to 196 | CCCn1c(-c2cc(F)ccc2F)nc2c(N)nc(C#CC(C)(C)O)nc21.Cl |
| 171 to 175 | CCC(O)C#Cc1nc(N)c2nc(-c3cccc(F)c3)n(C)c2n1.Cl (stereo not shown) |
| > 290 | Cl.Cn1c(-c2cccc(F)c2)nc2c(N)nc(/C=C/C(C)(C)O)nc21 |
| 166 to 168 | Cn1c(-c2ccccc2F)nc2c(N)nc(C#CC3(O)CCCC3)nc21 [Example 147, 1-{2-[6-Amino-8-(2-fluorophenyl)-9-methyl-9H-2-purinyl]-1-ethynyl}-1-cyclopentanol] |
| 198 to 199 | Cn1c(-c2ccccc2F)nc2c(N)nc(C#CC(C)(C)O)nc21 [Example 156, 4-[6-Amino-8-(2-fluorophenyl)-9-methyl-9H-2-purinyl]-2-methyl-3-butyn-2-ol] |
| 237 to 238 | Cl.Cn1c(-c2cc(F)cc(F)c2)nc2c(N)nc(C#CC(C)(C)O)nc21 |
| 191 to 192 | CC(C)C(C)(O)C#Cc1nc(N)c2nc(-c3cccc(F)c3)n(C)c2n1.Cl (stereo not shown) |
| 233 to 234 | CCn1c(-c2cc(F)cc(F)c2)nc2c(N)nc(C#CC(C)(C)O)nc21.Cl |
| 136 to 138 | Cn1c(-c2ccccc2F)nc2c(N)nc(C#CC3(O)CCC3)nc21 [Example 146, 1-{2-[6-Amino-8-(2-fluorophenyl)-9-methyl-9H-2-purinyl]-1-ethynyl}-1-cyclobutanol] |
| 147 to 148 | CCC(O)(C#Cc1nc(N)c2nc(-c3cc(F)ccc3F)n(C)c2n1)CC.Cl |
| 170 to 173 | CC(C)C(O)C#Cc1nc(N)c2nc(-c3cccc(F)c3)n(C)c2n1.Cl (stereo not shown) |
| 213 to 215 | CCn1c(-c2cccc(F)c2F)nc2c(N)nc(C#CC(C)(C)O)nc21.Cl |
| 245 | CC(C)(O)C#Cc1nc(N)c2nc(-c3cc(F)cc(F)c3)n(C3CC3)c2n1.Cl |
| 187 to 188 | CCCn1c(-c2cccc(F)c2F)nc2c(N)nc(C#CC(O)(CC)CC)nc21.Cl |
| 149 to 152 | Cl.Cn1c(-c2cc(F)ccc2F)nc2c(N)nc(C#CC3(O)CCC3)nc21 |
| 199 to 201 | CCC(O)(C#Cc1nc(N)c2nc(-c3ccccc3F)n(C)c2n1)CC [Example 149] |
| 207 to 210 | CCC(O)(C#Cc1nc(N)c2nc(-c3cc(F)cc(F)c3)n(C)c2n1)CC.Cl |
| 196 to 198 | CC(C)(O)C#Cc1nc(N)c2nc(-c3cc(F)ccc3F)n(C3CC3)c2n1.Cl |
| 193 to 194 | Cl.Cn1c(-c2cccc(F)c2)nc2c(N)nc(C#CC(C)(O)C(C)(C)C)nc21 (stereo not shown) |
| 143 to 145 | CC(C)(O)C#Cc1nc(N)c2nc(-c3cccc(F)c3)n(C3CC3)c2n1.Cl |
